Assay results taken from PMC6886544.
Where two headings read alike, the source gives them in different places.

Key:
[1] = tested on: A431 cells (EGFR wild type); experiment: CellTiter-Glo viability assay, A431; details: Homo sapiens, A-431, 96 h, read-out: EGFR CTG EC50 A431, A431, 96 hours, CellTiter-Glo
Description: (§1) A431, HCC827, H1975, A549 and H358 cells were obtained from the American Type Culture Collection (ATCC). A431 cells were cultured in DMEM high glucose media (Life Technologies, Germany), and HCC827, H1975, A549 as well as H358 cells were cultured in RPMI media (Life Technologies, Germany), both containing L-Glutamine and were supplemented with 10% FBS (GE Healthcare, Austria) and 1% PenStrep (Life Technologies, Germany) in a humidified incubator at 37 °C and 5% CO2.
(§2) Cells were seeded at cell numbers that assure linearity and optimal signal intensity (150-300 cells/well, 25 µL) and cultured for 24 hours in serum- and antibiotics-containing media in humidified chambers at 37 °C / 5% CO2. The cells were then treated with EGFR inhibitors in serial
(§3) Afterwards viability studies were carried out using CellTiter-Glo Assay (Promega, USA) that is a homogeneous method of determining the number of viable cells in culture. It is based on quantification of ATP, indicating the presence of metabolically active cells. For these studies, CellTiter-Glo reagent was prepared according to the instructions of the kit and diluted 1:1 with the complete growth medium suitable for the corresponding cell line. Thereon, reagent and assay plates were equilibrated at room temperature for 20 min. Equal volumes of the reagent were added to the volume of culture medium present in each well (25 µL). The plates were mixed for 2 minutes on an orbital shaker to induce cell lysis. The microplates were then incubated at room temperature for 20 minutes for stabilization of the luminescent signal. Following incubation the luminescence was recorded on an EnVision microplate reader (Perkin Elmer) using 500 ms integration time. The data was then analyzed using the Quattro Research Software Suite for EC50-determination. As quality control the Z’-factor was calculated from 16 positive and negative control values. Only assay results showing a Z’-factor ≥0.5 were used for further analysis. All data points were measured in duplicates for each plate and were replicated in at least two plates.

[2] = tested on: H1975 cells (EGFR-L858R/T790M); experiment: CellTiter-Glo viability assay, H1975
Description: as §1, §2, §3

EGFR-L858R = EGFR-L858R (Homo sapiens, UniProt P00533, L858R); experiment: HTRF KinEASE-TK activity-based assay, EGFR-L858R
Sequence of EGFR-L858R (P00533 25-1210 L858R): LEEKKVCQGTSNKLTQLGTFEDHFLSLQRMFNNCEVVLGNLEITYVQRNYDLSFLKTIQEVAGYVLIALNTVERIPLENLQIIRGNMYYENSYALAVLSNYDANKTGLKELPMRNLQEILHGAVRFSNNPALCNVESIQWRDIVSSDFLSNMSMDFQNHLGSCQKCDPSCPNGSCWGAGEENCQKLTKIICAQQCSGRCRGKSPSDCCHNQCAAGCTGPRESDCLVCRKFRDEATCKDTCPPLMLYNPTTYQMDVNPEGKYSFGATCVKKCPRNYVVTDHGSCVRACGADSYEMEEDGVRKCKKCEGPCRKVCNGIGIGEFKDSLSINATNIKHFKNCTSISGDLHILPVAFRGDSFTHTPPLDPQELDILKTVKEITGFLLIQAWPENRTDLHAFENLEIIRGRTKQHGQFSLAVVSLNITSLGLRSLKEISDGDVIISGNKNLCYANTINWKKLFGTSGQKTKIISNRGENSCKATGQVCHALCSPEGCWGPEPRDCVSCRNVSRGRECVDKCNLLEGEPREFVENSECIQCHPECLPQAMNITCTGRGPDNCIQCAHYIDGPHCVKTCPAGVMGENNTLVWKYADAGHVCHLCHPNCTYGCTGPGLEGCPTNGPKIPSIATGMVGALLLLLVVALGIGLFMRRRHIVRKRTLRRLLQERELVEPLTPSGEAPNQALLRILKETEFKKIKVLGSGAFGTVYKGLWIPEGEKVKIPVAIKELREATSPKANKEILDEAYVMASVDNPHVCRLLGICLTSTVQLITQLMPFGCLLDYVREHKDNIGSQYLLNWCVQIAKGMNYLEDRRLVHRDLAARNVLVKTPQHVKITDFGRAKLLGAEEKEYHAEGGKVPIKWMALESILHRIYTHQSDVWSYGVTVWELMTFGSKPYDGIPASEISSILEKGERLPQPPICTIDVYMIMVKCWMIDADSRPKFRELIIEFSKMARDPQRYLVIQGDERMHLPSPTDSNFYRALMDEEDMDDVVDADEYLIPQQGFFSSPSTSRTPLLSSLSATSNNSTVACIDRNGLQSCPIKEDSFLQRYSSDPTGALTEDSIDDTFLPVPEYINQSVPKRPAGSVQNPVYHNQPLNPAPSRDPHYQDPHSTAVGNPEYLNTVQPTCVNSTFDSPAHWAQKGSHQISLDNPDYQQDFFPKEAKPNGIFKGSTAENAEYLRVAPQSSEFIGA

EGFR-wt = EGFR-wt (Homo sapiens, UniProt P00533); experiment: HTRF KinEASE-TK activity-based assay, EGFR-wt
Sequence of EGFR-wt (P00533 25-1210): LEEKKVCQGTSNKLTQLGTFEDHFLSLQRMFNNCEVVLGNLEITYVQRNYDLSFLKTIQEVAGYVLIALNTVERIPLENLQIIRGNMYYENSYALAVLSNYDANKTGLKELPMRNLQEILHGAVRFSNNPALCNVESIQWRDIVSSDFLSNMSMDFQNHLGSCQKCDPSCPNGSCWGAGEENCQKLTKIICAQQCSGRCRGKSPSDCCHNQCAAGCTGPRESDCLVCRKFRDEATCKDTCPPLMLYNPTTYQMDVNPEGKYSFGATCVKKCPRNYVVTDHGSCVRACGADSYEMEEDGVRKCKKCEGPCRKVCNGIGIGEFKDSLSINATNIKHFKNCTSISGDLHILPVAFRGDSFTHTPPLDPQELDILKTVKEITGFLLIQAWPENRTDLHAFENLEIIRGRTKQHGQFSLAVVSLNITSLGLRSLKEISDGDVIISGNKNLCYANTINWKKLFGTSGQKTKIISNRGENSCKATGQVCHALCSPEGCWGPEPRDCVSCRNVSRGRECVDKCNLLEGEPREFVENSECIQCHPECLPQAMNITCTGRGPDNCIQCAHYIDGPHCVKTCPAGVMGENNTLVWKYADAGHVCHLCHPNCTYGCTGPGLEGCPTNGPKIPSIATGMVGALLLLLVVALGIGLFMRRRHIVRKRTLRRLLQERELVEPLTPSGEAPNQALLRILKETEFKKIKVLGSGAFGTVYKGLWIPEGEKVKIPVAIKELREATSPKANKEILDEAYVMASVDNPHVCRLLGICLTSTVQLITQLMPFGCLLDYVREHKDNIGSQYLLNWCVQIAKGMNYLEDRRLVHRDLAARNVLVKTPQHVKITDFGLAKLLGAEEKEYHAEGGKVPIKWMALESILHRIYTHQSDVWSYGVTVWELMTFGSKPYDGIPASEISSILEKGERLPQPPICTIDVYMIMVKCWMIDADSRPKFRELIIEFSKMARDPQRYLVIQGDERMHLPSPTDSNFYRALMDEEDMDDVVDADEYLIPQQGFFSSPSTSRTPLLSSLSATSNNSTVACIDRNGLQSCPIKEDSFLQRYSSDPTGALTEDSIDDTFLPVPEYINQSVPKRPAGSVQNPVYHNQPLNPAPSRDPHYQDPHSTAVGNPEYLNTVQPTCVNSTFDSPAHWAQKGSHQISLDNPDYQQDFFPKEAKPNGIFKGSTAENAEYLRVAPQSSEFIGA

A549 cells (KRAS mutant) = experiment: CellTiter-Glo viability assay, A549; details: Homo sapiens, A549, 96 h, read-out: KRAS CTG EC50 A549
Description: as §1, §2, §3

[3] = tested on: HCC827 cells (EGFR-delE746_A750); experiment: CellTiter-Glo viability assay, HCC827; assay type: cell-based; details: Homo sapiens; HCC827, 96 hours, CellTiter-Glo; read-out: EGFR CTG EC50 HCC827;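 note: luminescence from ATP content as a measure of metabolically active cells, in RPMI with 10% FBS, compound added as serial dilutions after 24 h of preculture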
EGFR-L858R/T790M = EGFR-L858R/T790M (Homo sapiens, UniProt P00533, L858R/T790M); experiment: HTRF KinEASE-TK activity-based assay, EGFR-L858R/T790M
Sequence of EGFR-L858R/T790M (P00533 25-1210 T790M/L858R): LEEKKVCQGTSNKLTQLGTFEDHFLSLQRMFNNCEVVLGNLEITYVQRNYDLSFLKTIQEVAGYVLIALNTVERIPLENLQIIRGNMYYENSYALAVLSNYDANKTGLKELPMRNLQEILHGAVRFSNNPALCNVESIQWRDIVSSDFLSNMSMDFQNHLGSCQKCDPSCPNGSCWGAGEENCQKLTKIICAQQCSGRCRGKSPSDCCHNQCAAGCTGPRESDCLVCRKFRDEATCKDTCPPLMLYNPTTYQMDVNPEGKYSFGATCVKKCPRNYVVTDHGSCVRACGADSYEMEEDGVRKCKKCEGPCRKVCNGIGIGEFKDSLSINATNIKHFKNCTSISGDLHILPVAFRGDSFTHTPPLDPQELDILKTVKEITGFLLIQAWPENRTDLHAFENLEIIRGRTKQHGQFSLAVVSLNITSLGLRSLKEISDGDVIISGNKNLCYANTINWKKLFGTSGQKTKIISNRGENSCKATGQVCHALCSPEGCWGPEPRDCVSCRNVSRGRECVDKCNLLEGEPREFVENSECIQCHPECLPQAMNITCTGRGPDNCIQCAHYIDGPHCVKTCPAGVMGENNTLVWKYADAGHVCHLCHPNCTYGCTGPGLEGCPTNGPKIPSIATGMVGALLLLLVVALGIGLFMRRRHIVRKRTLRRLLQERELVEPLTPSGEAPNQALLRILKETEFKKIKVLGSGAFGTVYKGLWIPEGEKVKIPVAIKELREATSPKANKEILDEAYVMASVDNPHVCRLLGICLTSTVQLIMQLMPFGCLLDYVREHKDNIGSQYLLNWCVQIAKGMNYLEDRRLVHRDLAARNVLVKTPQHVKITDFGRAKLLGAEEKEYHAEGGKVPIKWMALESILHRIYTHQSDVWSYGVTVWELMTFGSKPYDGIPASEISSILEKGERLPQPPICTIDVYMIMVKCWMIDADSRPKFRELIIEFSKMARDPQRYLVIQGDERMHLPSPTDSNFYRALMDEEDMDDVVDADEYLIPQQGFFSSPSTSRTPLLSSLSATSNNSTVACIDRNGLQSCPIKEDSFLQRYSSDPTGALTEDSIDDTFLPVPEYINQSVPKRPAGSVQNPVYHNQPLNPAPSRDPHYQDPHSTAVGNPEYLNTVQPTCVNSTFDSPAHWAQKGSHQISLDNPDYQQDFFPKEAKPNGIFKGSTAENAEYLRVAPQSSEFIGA

H358 cells (KRAS mutant) = experiment: CellTiter-Glo viability assay, H358; assay type: cell-based; details: Homo sapiens, NCI-H358; H358, 96 hours, CellTiter-Glo; read-out: KRAS CTG EC50 H358;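 note: viable cell number estimated from ATP-dependent luminescence following exposure to serially diluted inhibitor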
[4] = Microsomal stability (phase I), mouse; assay type: in vitro ADME; details: mouse liver microsomes, up to 60 minutes, 37 °C
Description: Microsomal stability (phase I) assay.
Metabolic stability under oxidative conditions was measured in liver microsomes from different
time up to 50 minutes (HLM) or 60 minutes (MLM) at 37 °C. Based on the compound half-life t1/2,
the in vitro intrinsic clearance CLint was calculated. […]

[5] = Homo sapiens, NCI-H1975, 96 h, read-out: EGFR CTG EC50 H1975, H1975, 96 hours, CellTiter-Glo
[6] = EGFR HTRF IC50 wt, ATP at Km (9.5 µM), 30 min preincubation, mean ± SD of three independent measurements in duplicates
[7] = EGFR HTRF IC50 L858R/T790M, ATP at Km (4 µM), 30 min preincubation, mean ± SD of three independent measurements in duplicates
[8] = read-out: EGFR CTG EC50 H1975, H1975, 96 hours, CellTiter-Glo

Compound	EC50 [1] [nM]	EC50 [2, 5] [nM]	IC50 (EGFR-L858R) [nM]	IC50 (EGFR-wt; [6]) [nM]	EC50 (A549 cells (KRAS mutant)) [nM]	EC50 [3] [nM]	IC50 (EGFR-L858R/T790M; [7]) [nM]	EC50 (H358 cells (KRAS mutant)) [nM]	microsomal CLint at 3 µM [4] [µL/min/mg]	EC50 [2, 8] [nM]	IC50 (EGFR-wt; IC50 EGFR-wt, rounded value) [nM]	IC50 (EGFR-L858R/T790M; IC50 gatekeeper mutant EGFR, rounded value) [nM]
CCC(=O)Nc1cccc(-c2c(-c3ccc(CN4CCN(C)CC4)cc3)[nH]c3ncnc(OC)c23)c1 [Compound 17b]	5670 ± 60	9610 ± 1120	116 ± 57	460 ± 162	5730 ± 1430	1520 ± 399	302 ± 84	10300 ± 2170	–	–	–	–
C=CC(=O)Nc1cc(-c2c(-c3ccc(N4CCN(C)CC4)cc3)[nH]c3ncnc(OC)c23)ccc1OC(C)COC (centres unmarked) [Compound 20b]	1320 ± 777	~300	< 0.1	0.2 ± 0.2	5850	< 14	0.1 ± 0.1	4470	8	375 ± 252	–	–
C=CC(=O)Nc1cccc(-c2c(-c3ccc(N4CCN(C)CC4)cc3)[nH]c3ncn(CCCSC)c(=O)c23)c1 [Compound 29f]	–	–	1.7 ± 0.5	4.6 ± 1.1	24700 ± 7550	134	20 ± 6	11900	–	–	–	–
CCC(=O)Nc1cccc(-c2c(-c3ccccc3)[nH]c3ncnc(OC)c23)c1 [Compound 1b]	> 30000	> 30000	1700 ± 747	5370 ± 1920	> 30000	–	3960 ± 614	> 30000	–	–	5000	4000
C=CC(=O)Nc1cccc(Nc2nc(Nc3ccc(N4CCN(C(C)=O)CC4)cc3OC)ncc2C(F)(F)F)c1 [Rociletinib, rociletinib, reference compound]	1910 ± 467	145 ± 86	–	–	–	45 ± 11	–	–	–	–	–	–
C=CC(=O)Nc1cccc(-c2c(-c3ccc(N4CCN(C)CC4)cc3)[nH]c3ncnc(OC)c23)c1 [Compound 19a]	638 ± 247	60 ± 8	0.1	0.4	840 ± 289	< 14	0.2	1670 ± 721	–	–	–	–
C=CC(=O)Nc1cccc(-c2c(-c3ccc(N4CCN(C)CC4)cc3)[nH]c3ncnc(OC(C)C)c23)c1 [Compound 19g]	334 ± 50	38 ± 19	< 0.1	0.1	1800 ± 131	< 14	0.1	2700 ± 758	46	–	–	–
CCN1CCN(Cc2ccc(-c3cc4c(N[C@H](C)c5ccccc5)ncnc4[nH]3)cc2)CC1 [AEE788, reference compound]	1790 ± 1090	4680 ± 1030	–	–	3970 ± 720	16 ± 3	–	3780 ± 383	–	–	–	–
C=CC(=O)Nc1cccc(-c2c(-c3ccc(N4CCN(C)CC4)cc3)[nH]c3nc[nH]c(=O)c23)c1 [Compound 19i]	–	–	12 ± 4	12 ± 4	> 30000	557 ± 266	24 ± 12	> 30000	–	–	–	–
C=CC(=O)Nc1cccc(-c2c(-c3ccccc3)[nH]c3ncnc(OC)c23)c1 [Compound 1a]	> 30000	–	133 ± 57	1200 ± 87	> 30000	827 ± 234	176 ± 33	> 30000	156	–	~1000	–
Cc1cc(C(=O)Nc2nc3cccc(Cl)c3n2[C@@H]2CCCCN(C(=O)/C=C/CN(C)C)C2)ccn1 [EGF816, nazartinib, reference compound]	4380 ± 1390	296 ± 64	–	–	–	< 14	–	–	–	–	–	–
C=CC(=O)Nc1cccc(-c2c(-c3ccc(N4CCN(C)CC4)cc3)[nH]c3ncn(CCSC)c(=O)c23)c1 [Compound 29e]	1870 ± 595	723 ± 188	0.1 ± 0.1	0.4 ± 0.1	22400 ± 11200	< 14	0.9 ± 0.1	> 30000	–	–	–	–
C=CC(=O)Nc1cc(-c2c(-c3ccc(N4CCN(C)CC4)cc3)[nH]c3ncnc(OC)c23)ccc1OCCOC [Compound 20a]	–	~300	< 0.1	0.2 ± 0.1	956	< 14	< 0.1	1100	–	298 ± 251	–	–
